Reference: patent US20220347175A1, “PYRIDAZINONE DERIVATIVE” (Sumitomo Dainippon Pharma Co., Ltd., priority 2018, published 2022)

What was measured:
human Nav1.5 = target: T1, human Nav1.5 (Homo sapiens, UniProt Q14524); experiment: Amplification of Nav1.5-derived voltage-dependent sodium current (Nav1.5 current), cell line stably expressing human Nav1.5, automated patch clamp; assay type: cell-based; conditions: for activation at 10 µM / Nav1.5 current amplification rate (%): 10 μmol/L compound, change of the area under the curve of Nav1.5 current (Test Result 1)
T1 construct: expressed in transfected cells; host or cells: CHO-K1 (T-REx System, ThermoFisher Scientific)

human Nav1.1 = target: T2, human Nav1.1 (Homo sapiens, UniProt P35498); experiment: Amplification of Nav1.1-derived voltage-dependent sodium current (Nav1.1 current), cell line stably expressing human Nav1.1, automated patch clamp; assay type: cell-based; conditions: for activation at 10 µM / Nav1.1 current amplification rate (%): 10 μmol/L compound, change of the area under the curve of Nav1.1 current (Test Result 1)
T2 construct: host or cells: HEK293
Outline: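 Amplification rate (%) is 100 × post-compound/pre-compound Nav1.1 peak current or AUC, minus 100. Ramp-evoked sodium currents were recorded by automated patch clamp in a human Nav1.1 HEK293 stable line, restricted to cells exceeding 500 pA, with compounds added in extracellular solution containing 1% DMSO.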

[1] = read-out: Nav1.5 current amplification rate (%)
[2] = read-out: Nav1.1 current amplification rate (%)

T1 sequence (Q14524 1-2015 isoform Q14524-2): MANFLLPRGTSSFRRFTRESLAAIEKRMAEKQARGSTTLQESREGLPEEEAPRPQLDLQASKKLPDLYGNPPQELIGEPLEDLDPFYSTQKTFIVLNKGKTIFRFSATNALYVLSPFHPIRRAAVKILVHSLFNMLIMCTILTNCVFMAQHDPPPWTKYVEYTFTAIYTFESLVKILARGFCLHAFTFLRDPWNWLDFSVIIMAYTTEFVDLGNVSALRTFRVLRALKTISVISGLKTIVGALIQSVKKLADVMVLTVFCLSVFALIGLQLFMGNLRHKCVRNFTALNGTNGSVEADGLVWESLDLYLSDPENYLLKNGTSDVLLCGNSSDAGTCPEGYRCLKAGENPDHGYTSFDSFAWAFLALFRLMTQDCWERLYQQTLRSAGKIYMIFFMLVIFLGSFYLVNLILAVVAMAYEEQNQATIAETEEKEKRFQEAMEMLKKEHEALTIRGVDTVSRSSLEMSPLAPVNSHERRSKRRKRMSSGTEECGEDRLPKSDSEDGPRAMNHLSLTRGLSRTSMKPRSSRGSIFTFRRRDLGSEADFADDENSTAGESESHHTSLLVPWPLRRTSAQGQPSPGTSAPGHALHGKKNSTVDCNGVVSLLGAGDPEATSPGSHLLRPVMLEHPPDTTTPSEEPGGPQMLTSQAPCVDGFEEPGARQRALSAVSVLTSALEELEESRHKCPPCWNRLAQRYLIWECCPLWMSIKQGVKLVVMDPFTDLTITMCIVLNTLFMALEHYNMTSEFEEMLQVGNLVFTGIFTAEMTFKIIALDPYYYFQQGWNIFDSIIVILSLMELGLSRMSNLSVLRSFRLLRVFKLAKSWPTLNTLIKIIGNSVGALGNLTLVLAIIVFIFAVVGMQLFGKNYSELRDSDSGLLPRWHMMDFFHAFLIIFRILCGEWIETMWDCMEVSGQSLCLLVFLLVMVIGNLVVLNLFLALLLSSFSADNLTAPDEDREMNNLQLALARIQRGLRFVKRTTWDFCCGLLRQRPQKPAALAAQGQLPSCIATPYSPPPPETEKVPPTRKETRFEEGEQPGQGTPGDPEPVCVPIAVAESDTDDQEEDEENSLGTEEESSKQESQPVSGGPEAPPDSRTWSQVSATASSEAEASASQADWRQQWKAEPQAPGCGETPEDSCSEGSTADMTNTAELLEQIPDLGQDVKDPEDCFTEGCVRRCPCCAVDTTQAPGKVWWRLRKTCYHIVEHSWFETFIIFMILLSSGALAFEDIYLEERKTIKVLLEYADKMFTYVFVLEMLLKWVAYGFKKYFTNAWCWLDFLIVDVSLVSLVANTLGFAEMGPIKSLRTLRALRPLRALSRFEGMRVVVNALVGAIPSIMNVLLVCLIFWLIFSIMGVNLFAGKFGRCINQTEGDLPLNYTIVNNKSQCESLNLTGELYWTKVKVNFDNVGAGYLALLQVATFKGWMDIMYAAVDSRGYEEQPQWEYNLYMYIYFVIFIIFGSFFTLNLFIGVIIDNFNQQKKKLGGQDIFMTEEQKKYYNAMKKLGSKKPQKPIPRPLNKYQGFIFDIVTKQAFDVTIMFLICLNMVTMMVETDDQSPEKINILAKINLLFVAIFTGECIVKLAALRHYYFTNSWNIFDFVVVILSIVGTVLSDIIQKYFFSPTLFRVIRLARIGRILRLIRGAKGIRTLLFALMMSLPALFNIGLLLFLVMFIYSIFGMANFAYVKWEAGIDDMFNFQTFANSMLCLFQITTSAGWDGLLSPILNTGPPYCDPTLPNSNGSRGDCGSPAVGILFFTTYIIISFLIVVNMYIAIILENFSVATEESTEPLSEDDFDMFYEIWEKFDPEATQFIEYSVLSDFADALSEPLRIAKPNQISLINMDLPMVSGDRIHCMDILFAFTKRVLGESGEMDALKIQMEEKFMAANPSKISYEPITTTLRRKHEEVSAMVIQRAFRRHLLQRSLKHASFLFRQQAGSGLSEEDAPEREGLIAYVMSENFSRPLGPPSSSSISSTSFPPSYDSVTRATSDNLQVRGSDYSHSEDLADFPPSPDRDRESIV

SMILES	activation at 10 µM (human Nav1.5; [1])	activation at 10 µM (human Nav1.1; [2])	further results
N#Cc1cncc(NC(=O)Cn2nc(C3=CCC(F)(F)CC3)ccc2=O)c1 [Example 107]	24%	37%	–
N#Cc1ccc(NC(=O)Cn2nc(C3=CCC(F)(F)CC3)ccc2=O)cn1 [Example 109]	23%	57%	–
O=C(Cn1nc(C2=CCC(F)(F)CC2)ccc1=O)Nc1cncc(C(F)(F)F)c1 [Example 112]	9%	46%	–
O=C(Cn1nc(C2=CCC(F)(F)CC2)ccc1=O)Nc1ccnc(C(F)(F)F)c1 [Example 114]	12%	83%	–
N#Cc1cc(NC(=O)Cn2nc(C3=CCC(F)(F)CC3)ccc2=O)ccn1 [Example 115]	12%	56%	–
N#Cc1ccc(NC(=O)Cn2nc(N3CCCCCC3)ccc2=O)cn1 [Example 119]	25%	120%	–
O=C(Cn1nc(N2CCCCCC2)ccc1=O)Nc1ccnc(C(F)(F)F)c1 [Example 120]	5%	176%	–
N#Cc1ccc(NC(=O)Cn2nc(N3CCC4(CCCC4)C3)ccc2=O)cn1 [Example 121]	98%	184%	–
O=C(Cn1nc(N2CCC3(CCCC3)C2)ccc1=O)Nc1ccc2ocnc2c1 [Example 122]	18%	173%	–
O=C(Cn1nc(N2CCC3(CCCC3)C2)ccc1=O)Nc1cccc(-n2ccnc2)c1 [Example 123]	30%	246%	–
N#Cc1ccc(NC(=O)Cn2nc(N3CCC4(CCC4)CC3)ccc2=O)cn1 [Example 124]	70%	205%	–
O=C(Cn1nc(N2CCC3(CCC3)CC2)ccc1=O)Nc1cccc(-n2ccnc2)c1 [Example 125]	34%	220%	–
O=C(Cn1nc(N2CCC3(CCC3)CC2)ccc1=O)Nc1ccc2ocnc2c1 [Example 126]	13%	167%	–
O=C(Cn1nc(N2CCC3(CCC3)CC2)ccc1=O)Nc1ccc2scnc2c1 [Example 127]	58%	229%	–
O=C(Cn1nc(N2CCC3(CCCC3)C2)ccc1=O)Nc1ccc2scnc2c1 [Example 128]	56%	240%	–
CC1(C)CCC=C(c2ccc(=O)n(CC(=O)Nc3ccc4ocnc4c3)n2)C1 [Example 129]	25%	314%	–
O=C(Cn1nc(N2CCCC3(CCC3)C2)ccc1=O)Nc1ccc2ocnc2c1 [Example 130]	3%	181%	–
O=C(Cn1nc(N2CCC3(CCC3)C2)ccc1=O)Nc1ccc2ocnc2c1 [Example 131]	7%	227%	–
O=C(Cn1nc(N2CCCC3(CCCC3)C2)ccc1=O)Nc1ccc2ocnc2c1 [Example 132]	-2%	108%	–
O=C(Cn1nc(N2CCCC3(CCC3)C2)ccc1=O)Nc1ccc2scnc2c1 [Example 133]	12%	285%	–
O=C(Cn1nc(N2CCCC3(CCC3)C2)ccc1=O)Nc1cccc(-c2nccs2)c1 [Example 134]	-5%	44%	–
O=C(Cn1nc(N2CCC3(CCCC3)CC2)ccc1=O)Nc1ccc2ocnc2c1 [Example 135]	2%	195%	–
Cc1ccc(-c2nn(CC(=O)Nc3ccn4ccnc4c3)c(=O)c(C)c2C)cc1 [Example 156]	–	–	Nav1.5 current amplification rate (%) (human Nav1.5): 4%; Nav1.1 current amplification rate (%) (human Nav1.1): 33%
Cc1ccc(-c2ccc(=O)n(CC(=O)N3CCc4cc(N5CCOCC5)ccc43)n2)cc1 [Example 158]	–	–	Nav1.5 current amplification rate (%) (human Nav1.5): 30%; Nav1.1 current amplification rate (%) (human Nav1.1): 122%
Cc1ccc(-c2ccc(=O)n(CC(=O)N3CCc4cnccc43)n2)cc1 [Example 159]	–	–	Nav1.5 current amplification rate (%) (human Nav1.5): 26%; Nav1.1 current amplification rate (%) (human Nav1.1): 32%
O=C(Cn1nc(N2CCC3(CCC3)C2)ccc1=O)Nc1ccc2scnc2c1 [Example 160]	33%	324%	–

SMILES	activation at 10 µM (human Nav1.5; [1])	activation at 10 µM (human Nav1.1; [2])	further results
O=C(Cn1nc(N2CCC3C(C2)C3(F)F)ccc1=O)Nc1ccc2ocnc2c1 (stereo not drawn) [Example 161]	-1%	21%	–
O=C(Cn1nc(N2CC3C(C2)C3(F)F)ccc1=O)Nc1ccc2ocnc2c1 (stereo not drawn) [Example 162]	0%	6%	–
CC1CCN(c2ccc(=O)n(CC(=O)Nc3ccc4ccoc4c3)n2)CC1 [Example 163]	1%	118%	–
CC1CCN(c2ccc(=O)n(CC(=O)N3CCc4cc(N5CCOCC5)ccc43)n2)CC1 [Example 164]	34%	187%	–
Cc1c(N2CCC3(CCCC3)C2)nn(CC(=O)Nc2ccc3ocnc3c2)c(=O)c1C [Example 165]	11%	146%	–
Cc1c(N2CCC3(CCCC3)C2)nn(CC(=O)Nc2ccn3ccnc3c2)c(=O)c1C [Example 166]	45%	150%	–
O=C(Cn1nc(N2CCC3(CCCC3)C2)ccc1=O)Nc1ccn2ccnc2c1 [Example 167]	21%	129%	–
O=C(Cn1nc(N2CCC3(CCC3)CC2)ccc1=O)Nc1ccn2ccnc2c1 [Example 168]	23%	205%	–
O=C(Cn1nc(N2CCC3(CCCC3)C2)ccc1=O)Nc1ccn2nccc2c1 [Example 169]	43%	155%	–
CC1CCN(c2ccc(=O)n(CC(=O)Nc3ccc4c(c3)OCC4)n2)CC1 [Example 170]	1%	107%	–
CC1CCN(c2ccc(=O)n(CC(=O)Nc3cccc(-c4cnc[nH]4)c3)n2)CC1 [Example 171]	–	–	activation at 3 µM (human Nav1.5; compound 3 μmol/L, CHO-K1 stably expressing human Nav1.5, read-out: Nav1.5 current amplification rate (%)): 0%; activation at 3 µM (human Nav1.1; compound 3 μmol/L, HEK293 stably expressing human Nav1.1, read-out: Nav1.1 current amplification rate (%)): 2%
O=C(Cn1nc(N2CCC3(CCC3)C2)ccc1=O)Nc1ccc2c(c1)OCC2 [Example 172]	4%	117%	–
CC1CCN(c2ccc(=O)n(CC(=O)Nc3ccn4c(Br)cnc4c3)n2)CC1 [Example 173]	47%	112%	–
Cc1cn2ccc(NC(=O)Cn3nc(N4CCC(C)CC4)ccc3=O)cc2n1 [Example 174]	4%	75%	–
Cc1cc2cc(NC(=O)Cn3nc(N4CCC(C)CC4)ccc3=O)ccc2o1 [Example 175]	1%	44%	–
O=C(Cn1nc(N2CCC3(CCC3)CC2)ccc1=O)Nc1ccn2cnnc2c1 [Example 176]	2%	66%	–
O=C(Cn1nc(N2CCC3(CCC3)C2)ccc1=O)Nc1ccn2ccnc2c1 [Example 177]	16%	169%	–
Cc1c(N2CCC(C)(C)CC2)nn(CC(=O)Nc2ccn3ccnc3c2)c(=O)c1C [Example 178]	1%	44%	–
O=C(Cn1nc(N2CC3(CCCCC3)C2)ccc1=O)Nc1ccn2ccnc2c1 [Example 179]	-1%	27%	–
CC1CCN(c2ccc(=O)n(CC(=O)Nc3ccc4c(c3)NC(=O)CC4)n2)CC1 [Example 181]	4%	118%	–
COC(=O)c1ccc(NC(=O)Cn2nc(N3CCC(C)CC3)ccc2=O)cn1 [Example 182]	17%	32%	–
COc1ccc2c(c1)CCN2C(=O)Cn1nc(N2CCC(C)CC2)ccc1=O [Example 183]	0%	95%	–
O=C(Cn1nc(N2CCC3(CCC3)C2)ccc1=O)N1CCc2cc(N3CCOCC3)ccc21 [Example 184]	16%	35%	–
O=C(Cn1nc(N2CCC3(CCC3)CC2)ccc1=O)N1CCc2cnccc21 [Example 185]	2%	22%	–
COc1ccc2c(c1)CCN2C(=O)Cn1nc(N2CCC3(CCC3)C2)ccc1=O [Example 187]	17%	37%	–
